{"source": "patent US20090176817A1", "about": "“Method of Treatment of Diarrhea-Predominant Irritable Bowel Syndrome in a Subject” (priority 2005, published 2009)", "key": {"in vitro": {"assay": "in vitro", "format": "in vitro ADME", "details": "human, plasma", "method": "Protein binding was also evaluated in an in vitro study in human, mouse, rat, and dog plasma using equilibrium dialysis (12-14K molecular weight cut-off membrane). This study measured the binding of (^14C)-cilansetron in plasma at nominal concentrations (30, 90, and 300 ng/mL) which are much higher than those encountered in vivo in humans. This study also measured the binding of (^14C)-cilansetron to purified human serum albumin at cilansetron concentrations ranging from 30-3000 ng/mL and to purified human alpha-1 acid glycoprotein (AAG) at concentrations ranging from 30-10000 ng/mL."}, "[1]": {"format": "in vitro ADME", "details": "human", "method": "Protein binding was also evaluated in an in vitro study in human, mouse, rat, and dog plasma using equilibrium dialysis (12-14K molecular weight cut-off membrane). […] This study also measured the binding of (^14C)-cilansetron to purified human serum albumin at cilansetron concentrations ranging from 30-3000 ng/mL and to purified human alpha-1 acid glycoprotein (AAG) at concentrations ranging from 30-10000 ng/mL."}, "[2]": {"system": "non-constipated IBS subjects", "assay": "Study S241.2.112: Phase II dose-ranging efficacy", "format": "in vivo, human", "method": "Study S241.2.112 was a Phase II, double-blind, placebo-controlled, randomized, multicenter parallel-group, dose-ranging study to investigate the efficacy and safety of cilansetron in non-constipated subjects with irritable bowel syndrome. The study was conducted in 51 study centers in the U.S. A total of at least 88 subjects were planned per treatment group evaluable for efficacy, in total 440 to complete the study; 975 subjects were screened; 490 were randomized and 481 analyzed for safety.\nDiagnosis and main criteria for inclusion were IBS subjects satisfying the Rome criteria (1992) and minimum abdominal pain/discomfort, stool frequency and consistency determined during the run-in period. Subjects were treated with cilansetron 1 mg, 2 mg, 8 mg, and 16 mg tablets given orally TID or matching placebo tablets given orally TID for 12 weeks.\nEfficacy was evaluated by weekly global questions concerning adequate relief of IBS symptoms (abdominal pain/discomfort, abnormal bowel habits). A responder is a subject who responded “Yes” at least 50% of the time after randomization, with a minimum treatment duration of four weeks."}, "[3]": {"system": "diarrhea-predominant IBS subjects", "assay": "Study S241.3.006: safety", "format": "in vivo, human", "details": "for Constipation: human, in vivo, 12 weeks", "method": "Safety was evaluated by physical examination, ECG, vital signs, clinical laboratory evaluations, concomitant medications, and AEs. An independent Gastrointestinal Events Review Board (GERB) was established to advise on gastrointestinal (GI) AEs during the course of the study and other safety events as considered necessary."}, "[4]": {"system": "diarrhea-predominant IBS subjects", "assay": "Study S241.3.009: IBS-QOL", "format": "in vivo, human", "set-up": "IBS-QOL interference with activity, treatment difference / IBS-QOL food avoidance, treatment difference / IBS-QOL dysphoria, treatment difference / IBS-QOL body image, treatment difference / IBS-QOL health worry, treatment difference / IBS-QOL social reaction, treatment difference / IBS-QOL sexual, treatment difference / IBS-QOL relationships, treatment difference: scale not given here", "details": "for Percentage of Subjects Who Worsened from Baseline: IBS-QOL Overall Score: S241.3.009, 2 mg TID, observed value", "text": "Studies S24 1.3.OO6, S24 1.3.0 1 1, and S24 1.3.009 used the following efficacy measurements: • The subjects answered the following three questions with “yes” or “no” using a phone diary at the end of each week: • a) During the last week, did you experience adequate relief of your IBS symptoms, such as abdominal pain, abdominal discomfort, abnormal bowel habits? • b) During the last week, did you experience adequate relief of your abdominal pain and/or discomfort? • c) During the last week, did you experience adequate relief of your abnormal bowel habits? • The subjects rated the following symptoms using the phone diary at the end of each day: • abdominal pain/discomfort (five-point scale); • stool consistency (seven-point Bristol Stool Scale); • stool frequency (number of bowel movements each day); • urgency (five-point scale); • straining (yes or no); • feeling of incomplete defecation (yes or no); • bloating or feeling of abdominal distension (five-point scale). • In Studies S241 A006 and S241.3.009, subjects completed the IBS-QOL Survey at Baseline (Day 1) and at the end of treatment. In Study S24 1.3.0 1 1, subjects completed the IBS-QOL Survey at Baseline (Day 1), at the end of the three-month treatment period, and at the end of rerandomized treatment.\nOther secondary efficacy parameters for all three studies included: • Responder rate for the weekly diary questions on adequate relief at each month, where a responder for a month (monthly responder) was defined as a subject who answered the weekly question with “yes” at least twice for that month. The responder rate was the percentage of responders within a treatment group. The all-month responder rate for the weekly diary questions on adequate relief was also evaluated, where an all-month responder was defined as a subject who answered the weekly question with “yes” at least twice for each month. The all-month responder rate was the percentage of all-month responders within a treatment group; • Adequate relief rate for the weekly diary questions was calculated for each subject as the number of weekly assessments with adequate relief (“yes”) divided by the total number of weekly assessments; • Percentage of subjects with adequate relief for the weekly diary questions at each week; • Daily diary questions regarding abdominal pain/discomfort (five-point scale), stool consistency (seven-point scale), stool frequency (number of bowel movements each day), straining (yes or no), urgency (five-point scale), feeling of incomplete evacuation (yes or no), and bloating or feeling of abdominal distention (five-point scale); • QOL data assessed by the IBS-QOL questionnaire; and • Question to determine the interruption of activities.\nThe IBS-QOL is presented for the ITT population in FIG. 84 (change from Baseline). The IBS-QOL questionnaire was completed only in countries for which there was a validated translation available."}, "[5]": {"details": "both, human, in vivo", "quoted_text": "The effect of hepatic impairment on the pharmacokinetics of cilansetron was evaluated in a multiple-dose, parallel group study in 14 healthy and 14 moderately to severely hepatically impaired male and female subjects, aged 41-70 years. Impaired subjects (Child-Pugh score 7 to 11) were matched to healthy subjects by age (±2 years), sex, menstrual status, and smoking history status. All subjects received oral cilansetron 8 mg TID on Days 1 to 5, and a single dose on the morning of Day 6. […] Blood samples were also collected at predose on Day 1, and at predose, 1 hour and 1.5 hours postdose on Day 6, for measurement of cilansetron protein binding in serum."}, "[6]": {"details": "both, human, in vivo", "remark": "listed apart in the source", "quoted_text": "In a single-dose, crossover study conducted to evaluate the potential for a drug-drug interaction between liquid Maalox and cilansetron, 12 male and 12-female subjects (aged 19-39 years) received single doses of cilansetron 16 mg alone and cilansetron 16 mg+Maalox in a crossover fashion under fasted conditions. Blood samples for measurement of plasma cilansetron pharmacokinetics were collected up to 24 hours postdose following each treatment.\nThe effect of concomitantly administered antacid (liquid Maalox) on the pharmacokinetics of cilansetron has been evaluated in a single-dose, crossover study in 24 healthy, male and female subjects, aged 19 to 39 years. Subjects received the following two treatments during each of the study periods in a crossover fashion: a single oral dose of cilansetron 16 mg tablet (reference treatment); a single oral dose of cilansetron 16 mg tablet+20 mL oral Maalox liquid administered every 4 hours (test treatment; 4 doses of Maalox in total; cilansetron was administered 5 minutes after the first dose of Maalox). Both cilansetron treatments were administered under fasted conditions."}}}
{"smiles": "Cc1nccn1C[C@H]1CCc2c(c3cccc4c3n2CCC4)C1=O", "note": "[Cilansetron, (R)-(−)-4,5,6,8,9,10-hexahydro-10-[(2-methyl-1H-imidazol-1-yl)methyl]-11H-pyrido-[3,2,1-jk]-carbazol-11-one]", "values": [{"measurement": "fraction unbound", "setting": "in vitro", "value": 0.042}, {"measurement": "Protein bound", "setting": "[1]", "value": "93-96%"}, {"measurement": "Responder rate better than placebo", "setting": "[2]; 1 mg TID", "value": 22, "unit": "%"}, {"measurement": "Responder rate better than placebo", "setting": "[2]; 1 mg, females", "value": 26, "unit": "%"}, {"measurement": "Responder rate higher than placebo", "setting": "[2]; 2 mg TID", "value": 13, "unit": "%"}, {"measurement": "Responder rate higher than placebo", "setting": "[2]; 8 mg TID", "value": 15, "unit": "%"}, {"measurement": "Responder rate better than placebo", "setting": "[2]; 16 mg TID", "value": 22, "unit": "%"}, {"measurement": "Number of subjects who died", "setting": "[3]; 2 mg TID, 352 randomized, S241.3.006", "value": "0 n (%)"}, {"measurement": "Constipation", "setting": "[3]; female", "value": 23, "unit": "%"}, {"measurement": "Constipation", "setting": "[3]; male", "value": 8, "unit": "%"}, {"measurement": "Subjects worsened from Baseline, IBS-QOL Overall Score", "setting": "[4]; Month 6", "value": 5, "unit": "%"}, {"measurement": "Percentage of Subjects Who Worsened from Baseline: IBS-QOL Overall Score", "setting": "[4]; Endpoint (last post-Baseline overall score)", "value": 5, "unit": "%"}, {"measurement": "Percentage of Subjects Who Worsened from Baseline: IBS-QOL Overall Score", "setting": "[4]; Month 6", "value": 5, "unit": "%"}, {"measurement": "IBS-QOL body image, treatment difference", "setting": "[4]; vs placebo", "value": 5.04}, {"measurement": "IBS-QOL dysphoria, treatment difference", "setting": "[4]; vs placebo", "value": 8.78}, {"measurement": "IBS-QOL food avoidance, treatment difference", "setting": "[4]; vs placebo", "value": 10.09}, {"measurement": "IBS-QOL health worry, treatment difference", "setting": "[4]; vs placebo", "value": 5.41}, {"measurement": "IBS-QOL interference with activity, treatment difference", "setting": "[4]; vs placebo", "value": 10.85}, {"measurement": "IBS-QOL overall score, treatment difference in mean change from Baseline at Endpoint", "setting": "[4]; vs placebo", "value": 7.90}, {"measurement": "IBS-QOL relationships, treatment difference", "setting": "[4]; vs placebo", "value": 5.66}, {"measurement": "IBS-QOL sexual, treatment difference", "setting": "[4]; vs placebo", "value": 2.93}, {"measurement": "IBS-QOL social reaction, treatment difference", "setting": "[4]; vs placebo", "value": 8.70}, {"measurement": "Increase in half-life with hepatic impairment", "setting": "[5]", "value": 2, "unit": "fold"}, {"measurement": "AUC increase with hepatic impairment", "setting": "[5]; 8 mg", "value": 88, "unit": "%"}, {"measurement": "Cmax increase with hepatic impairment", "setting": "[5]; 8 mg", "value": 22, "unit": "%"}, {"measurement": "AUC(0-τ) Ratio", "setting": "[5]; po, 8 mg", "value": 1.88}, {"measurement": "AUC(0-τ), Geom. LS Mean", "setting": "[5]; po, 8 mg", "value": 178, "unit": "ng·h/mL"}, {"measurement": "Cmax", "setting": "[5]; po, 8 mg", "value": "75.2 (40) ng/mL"}, {"measurement": "Cmax Ratio", "setting": "[5]; po, 8 mg", "value": 1.22}, {"measurement": "Cmax, Geom. LS Mean", "setting": "[5]; po, 8 mg", "value": 68.7, "unit": "ng/mL"}, {"measurement": "T½", "setting": "[5]; po, 8 mg", "value": "4.37 (25) h"}, {"measurement": "Vz/F", "setting": "[5]; po, 8 mg", "value": "303 (45) L"}, {"measurement": "AUC (0-inf) Ratio (Treatment B/A)", "setting": "[6]", "value": 100, "unit": "%"}, {"measurement": "AUC (0-last) Ratio (Treatment B/A)", "setting": "[6]", "value": 100, "unit": "%"}, {"measurement": "Cmax Ratio (Treatment B/A)", "setting": "[6]", "value": 87, "unit": "%"}, {"measurement": "AUC and Cmax lower in males than in females", "setting": "[6]; 16 mg", "value": 56, "unit": "%"}, {"measurement": "Mean Cmax decrease with Maalox", "setting": "[6]; 16 mg", "value": 13, "unit": "%"}, {"measurement": "Mean half-life lower in males than in females", "setting": "[6]; 16 mg", "value": 41, "unit": "%"}]}
